Assay results from patent US20190224251A1, “METHODS OF DIFFERENTIATING STEM CELLS INTO ENDODERM” (MEMORIAL SLOAN-KETTERING CANCER CENTER, priority 2016, published 2019).
“Also recorded” adds a separate entry of the source.

How the values were obtained:
[1] = system: NKX2.1 expressing lung progenitor cells; experiment: Lung progenitor differentiation after transient JNK inhibition during DE differentiation; assay type: cell-based, human; settings: flow cytometry
Source text: (§1) An improved protocol suitable for endoderm derivative lineage differentiation was developed. The improved protocol dispensed with the use of serum and inhibited JNK on the first day of definitive endoderm differentiation (FIG. 13A).

[2] = system: definitive endoderm (SOX17 and CXCR4 expression); experiment: Serum-free DE differentiation with JNK inhibition on the first day; assay type: cell-based, human; settings: one day of JNK inhibition, no serum
Source text: as §1

[3] = system: HUES6 ES cells, and BJ and CV iPS cells; experiment: Definitive endoderm differentiation in further ES and iPS cell lines, flow cytometry of SOX17; assay type: cell-based, human; settings: without inhibitor efficiency 60-80%
Procedure: (§2) Human ES or iPS cells were cultured in E8 medium and routinely passed by EDTA. When cells reach to 80-90% confluences, cells were treated with TrpLE Select and get single cell for passaging. Typically, 0.15 millions human ES or iPS cells were plated in one well of the six-well plates with ROCK inhibitor 10 uM in 2 ML E8 media. For the H1 line, it was typically plated 0.1 million cells to accommodate the higher proliferation rate. Twenty-four hours later, cells were washed with PBS once and add Day0 media (Advanced RPMI (Thermo Fisher Scientific, 12633012) with penicillin/streptomycin (Thermo Fisher Scientific, 15070063), GlutaMAX (Thermo Fisher Scientific, 35050079), 0.003% BSA (Thermo Fisher Scientific, 15260037), […] CHIR-99021 (Tocris, 4423) and 100 ng/ml Activin A (PeperoTech, 12014E)). Over the next 2 days, cells were changed to Day2 media (Advanced RPMI with penicillin/streptomycin, GlutaMAX, 0.2% FBS and 100 ng/ml Activin A). […] JNK inhibitor JNK-IN-8 (Selleckchem, S4901) was used during differentiation when indicated. Routinely, around 60-80% SOX17+ cells were obtained in 3 days.
(§3) Cells were dissociated using TrypLE Select and resuspended in FACS buffer (5% FBS, 5 mM EDTA in PBS). […] After washing with permeabilization buffer, cells were resuspended in FACS buffer, and samples were analyzed using BD LSRfortessa or BD LSRII. […]

[4] = system: NKX6.1 and PDX1 expressing pancreatic progenitor cells; experiment: Pancreatic progenitor differentiation after transient JNK inhibition during DE differentiation; assay type: cell-based, human; settings: flow cytometry and immunostaining
Source text: as §1

[5] = system: DE cells differentiated from human ES cells; experiment: Endoderm differentiation in high or low Activin A condition, flow cytometry (CXCR4/SOX17, GATA6/GATA4) and RT-qPCR; assay type: cell-based; settings: either high or low Activin A condition
Procedure: Human ES or iPS cells were cultured in E8 medium and routinely passed by EDTA. When cells reach to 80-90% confluences, cells were treated with TrpLE Select and get single cell for passaging. Typically, 0.15 millions human ES or iPS cells were plated in one well of the six-well plates with ROCK inhibitor 10 uM in 2 ML E8 media. For the H1 line, it was typically plated 0.1 million cells to accommodate the higher proliferation rate. […]
as §3
Cell pellets were lysed in TRIzol (Thermo Fisher Scientific, 15596018). […] Quantitative real-time PCR was performed in triplicate using ABsolute Blue QPCR SYBR Green Mix with low ROX (Thermo Scientific, #AB4322B) on the ABI PRISM® 7500 Real Time PCR System (Applied Biosystems) using the following protocol: 15 minutes at 95° C. followed by 40 cycles of 15 seconds at 95° C., 30 seconds at 58° C., and 30 seconds at 72° C. The signal was detected at 72° C.

HUES8 SOX17GFP/+ cells = experiment: Definitive endoderm (DE) differentiation, flow cytometry of SOX17-GFP reporter; assay type: cell-based, human; settings: for formation of SOX17+ endoderm cells: Activin A and CHIR-99021 treatment, efficiency sensitive to dosages
Procedure: as §2
Cells were dissociated using TrypLE Select and resuspended in FACS buffer (5% FBS, 5 mM EDTA in PBS). First, cells were stained with surface antibody (CXCR4-APC) with LIVE/DEAD violet dye (Molecular Probe, L34955, 1:1,000) for 30 minutes at 4° C. After washing, […] After washing with FACS buffer, cells were fixed and permeabilized in 1× fixation/permeabilization buffer (eBioscience, 00-5523-00) for 30 minutes at 4° C. After fixation and permeabilization, cells were stained with intracellular conjugated antibody (SOX17-PE, GATA6-PE, GATA4-Alexa-647) in permeabilization buffer (eBioscience, 00-5523-00) for 30 minutes at 4° C. After washing with permeabilization buffer, cells were resuspended in FACS buffer, and samples were analyzed using BD LSRfortessa or BD LSRII. Flow cytometry analysis and figures were generated in Flowjo 10.

H1 cell line = experiment: Definitive endoderm (DE) differentiation, flow cytometry of SOX17; assay type: cell-based, human
Procedure: as §2, §3

[6] = system: C-terminal SMAD2 phosphorylation (Ser465/467) and JUN phosphorylation; experiment: Western blotting for signaling crosstalk between Nodal and JNK pathways; assay type: cell-based, human; settings: 15 minutes and 1 hour after initiating differentiation
Procedure: (§4) Cell pellets were quickly snap frozen in liquid nitrogen and lysated in lysis buffer (Cell Signaling Technology, 9803) with proteinase/phosphatase inhibitors (Cell Signaling Technology, 5872) and 1 mm PMSF (MP Biomedicals, ICN19538105). Proteins were pre-cleared by centrifugation at 14,000 g 4° C. for 10 minutes. Protein concentration was determined by Bradford assay (Bio-Rad, 500-0202). Equal amounts of protein were loaded into Bis-Tris 10% gel (Novex, NP0301BOX) and transferred to nitrocellulose membranes (Novex, LC2001). Membranes were blocked with 5% milk (for non-phosphorylated proteins) or 5% BSA (for phosphorylated proteins). Primary antibody was incubated overnight at 4° C. Membranes were washed with TBST 3 times for 10 minutes each and incubated with secondary antibody for 1 hour at R.T. Membrane were washed with TBST 3 times for 10 minutes each. ECL western blotting detection reagents (Amersham, RPN2236 and Thermo Fisher Scientific, 32106) were used to visualize the protein bands.

[7] = system: SOX17 and GATA6 enhancers; experiment: ChIP-qPCR of SMAD2/3 and JUN binding at the SOX17 and GATA6 enhancers; assay type: cell-based, human; settings: DE cells at Day 2
Procedure: Definitive endoderm cells at Day 2 were collected for chromatin immunoprecipitation. Cells were cross-linked with 1% formaldehyde (Sigma, F1635) at 37° C. for 15 min and quenched with 0.125 M glycine for 5 min at room temperature. ChIP was performed as previously described 52. Samples were incubated with […] of antibody bound to […] Dynabeads protein G (Thermo Fisher Scientific, 1004D), then incubated overnight at 4° C. 2% pre-cleared chromatin prior to primary antibody addition was kept as input DNA. Magnetic beads were washed and chromatin was eluted, and reverse cross-linked ChIP DNA was dissolved in 10 mM Tris pH 8.0 buffer for further analysis. For ChIP-qPCR, immunoprecipitated DNA was analyzed by qPCR, and the amplification product was expressed as percentage of the 2% input.

JUN phosphorylation = experiment: Western blot of JUN phosphorylation in DE cells; assay type: cell-based, human
Procedure: as §4

## Cc1cc(NC(=O)c2cccc(NC(=O)/C=C/CN(C)C)c2)ccc1Nc1nccc(-c2cccnc2)n1 [JNK-IN-8]
[1]
  number of NKX2.1 expressing lung progenitor cells: significantly increased
[2]
  induction of definitive endoderm (SOX17 and CXCR4 expression): sufficient to induce differentiation of definitive endoderm
[3]
  endoderm differentiation efficiency: significantly improved
[4]
  number of NKX6.1 and PDX1 expressing pancreatic progenitor cells: significantly increased
[5]
  efficiency of endoderm differentiation based on flow cytometry: greater than 90%
  levels of endoderm gene expression from RT-qPCR: increased
HUES8 SOX17GFP/+ cells; 1 μm JNK-IN-8, 3 days, HUES8-SOX17GFP, DMSO control ~79%
  DE differentiation (SOX17GFP+ cells): ~98%
HUES8 SOX17GFP/+ cells; HUES8 SOX17GFP/+ cells
  requirement for Activin A in Activin A dose titration: did not omit the requirement for Activin A
HUES8 SOX17GFP/+ cells; JNK-IN-8 with 20 ng/ml Activin A, HUES8 SOX17GFP/+ cells
  SOX17+ cells formed: ~95%
H1 cell line; 1 μm JNK-IN-8, 3 days, H1, DMSO control ~66%
  DE differentiation (SOX17+ cells): ~96%
H1 cell line; 1 μm JNK-IN-8, H1 and HUES8-SOX17GFP
  effect on DE differentiation at Day 2 versus Day 3: stronger at Day 2
[6]
  C-terminal SMAD2 phosphorylation (at Ser465/467): did not change
  JUN phosphorylation (Western blot): inhibited
[7]
  binding of JUN to the SOX17 and GATA6 enhancers: diminished
  binding of SMAD2/3 to the SOX17 and GATA6 enhancers: enhanced
JUN phosphorylation; JNK-IN-8 1 μm, H1-derived DE cells at day 3
  phosphorylation of JUN (Western blot): undetectable; also recorded: inhibition of JUN phosphorylation
JUN phosphorylation; JNK-IN-8 treated cells
  total JUN level (Western blot): down-regulated

## Cc1c[nH]c(-c2cnc(NCCNc3ccc(C#N)cn3)nc2-c2ccc(Cl)cc2Cl)n1 [CHIR-99021, 6-(2-(4-(2,4-dichlorophenyl)-5-(4-methyl-1H-imidazol-2-yl)pyrimidin-2-ylamino)ethylamino)nicotinonitrile]
HUES8 SOX17GFP/+ cells
  formation of SOX17+ endoderm cells: required
HUES8 SOX17GFP/+ cells; prolonged CHIR-99021 treatment
  outcome of prolonged WNT activation: formation of CXCR4+SOX17− cells

## NC(=O)c1ccc(-c2nc(-c3ccc4c(c3)OCO4)c(-c3ccccn3)[nH]2)cc1 [SB431542]
[6]
  C-terminal SMAD2 phosphorylation (at Ser465/467): blocked
  JUN phosphorylation (Western blot): did not affect

B1: Activin A: TGF-β superfamily member that mimics the activity of Nodal (protein, UniProt P08476 311-426, looked up)
Inhibin beta A chain: GLECDGKVNICCKKQFFVSFKDIGWNDWIIAPSGYHANYCEGECPSHIAGTSGSSLSFHSTVINHYRMRGHSPFANLKSCCVPTKLRPMSMLYYDDGQNIIKKDIQNMIVEECGCS
modifications: Inhibin beta A chain
HUES8 SOX17GFP/+ cells
  formation of SOX17+ endoderm cells: required
[6]
  C-terminal SMAD2 phosphorylation (at Ser465/467): induces
